Data as given in patent publication US20260109870A1, “PEPTIDE-BASED NON-CRYSTALLINE MATERIALS AND COMPOSITIONS AND PROCESSES FOR OBTAINING SAME” (Ramot at Tel-Aviv University Ltd., priority 2022, published 2026).
Residues, ends and D or L forms follow the SMILES beside them.

assay: physchem; details: water
Experimental: Each amino acid or peptide was weighed. Water was gradually added at room temperature and the solution was vortexed. After each addition of water, the solution was sampled and evaluated under light microscopy; this process was repeated until no visible particles were detected and the concentration was calculated and determined as the solubility limit of the peptide in water.

| solubility [mg/mL] | SMILES |
| --- | --- |
| > 1000 | N[C@@H](Cc1ccc(O)cc1)C(=O)N[C@@H](Cc1ccccc1)C(=O)O [YF] (H-Tyr-Phe-OH) |
| > 1000 | N[C@@H](Cc1ccc(O)cc1)C(=O)N[C@@H](Cc1ccc(O)cc1)C(=O)O [YY] (H-Tyr-Tyr-OH) |

assay: not given; details: in water; marked (literature); cited from earlier work

| SMILES | solubility |
| --- | --- |
| N[C@@H](Cc1ccccc1)C(=O)O [F, phenylalanine] | 29.6 (literature) milligram/milliliter |

assay: Solubility limit in water (gradual water addition, vortex, light microscopy); details: not given

| SMILES | solubility [mg/mL] |
| --- | --- |
| N[C@@H](Cc1ccc(O)cc1)C(=O)N[C@@H](Cc1ccccc1)C(=O)N[C@@H](Cc1ccccc1)C(=O)O [YFF] (H-Tyr-Phe-Phe-OH) | > 250 |
| N[C@@H](Cc1ccc(O)cc1)C(=O)N[C@@H](Cc1ccccc1)C(=O)N[C@@H](Cc1ccc(O)cc1)C(=O)O [YFY] (H-Tyr-Phe-Tyr-OH) | > 1000 |
| N[C@@H](Cc1ccc(O)cc1)C(=O)N[C@@H](Cc1ccc(O)cc1)C(=O)N[C@@H](Cc1ccccc1)C(=O)O [YYF] (H-Tyr-Tyr-Phe-OH) | > 1000 |
| N[C@@H](Cc1ccc(O)cc1)C(=O)N[C@@H](Cc1ccc(O)cc1)C(=O)N[C@@H](Cc1ccc(O)cc1)C(=O)O [YYY, Tyr-Tyr-Tyr] (H-Tyr-Tyr-Tyr-OH) | > 1000 |

Now from value to compound:

| solubility [mg/mL] | SMILES |
| --- | --- |
| < 1 | N[C@@H](Cc1ccccc1)C(=O)N[C@@H](Cc1ccccc1)C(=O)N[C@@H](Cc1ccccc1)C(=O)O [FFF, reference compound] (H-Phe-Phe-Phe-OH) |
| > 250 | N[C@@H](Cc1ccccc1)C(=O)N[C@@H](Cc1ccccc1)C(=O)N[C@@H](Cc1ccc(O)cc1)C(=O)O [FFY] (H-Phe-Phe-Tyr-OH) |
| < 5 | N[C@@H](Cc1ccccc1)C(=O)N[C@@H](Cc1ccc(O)cc1)C(=O)N[C@@H](Cc1ccccc1)C(=O)O [FYF, reference compound] (H-Phe-Tyr-Phe-OH) |
| > 1000 | N[C@@H](Cc1ccccc1)C(=O)N[C@@H](Cc1ccc(O)cc1)C(=O)N[C@@H](Cc1ccc(O)cc1)C(=O)O [FYY] (H-Phe-Tyr-Tyr-OH) |
| > 1000 | N[C@@H](Cc1ccccc1)C(=O)N[C@@H](Cc1ccc(O)cc1)C(=O)O [FY] (H-Phe-Tyr-OH) |
